We go through 16 compounds from patent publication US20210139453A1, “(HETERO)ARYL SULFONAMIDE COMPOUND AND FORMULATION FOR CONTROLLING HARMFUL ORGANISMS” (Nippon Soda Co., Ltd., priority 2018, published 2021).

This data set has as its system Mythimna separata. Briefly: Efficacy test against Mythimna separata (artificial feed mixed with emulsion). The conditions noted are these: in vivo. The source says: Five parts of the (hetero)aryl sulfonamide compound of the present invention, 93.6 parts of dimethylformamide and 1.4 parts of a polyoxyethylene alkyl aryl ether were mixed together and dissolved to obtain an emulsion (I) containing 5% of the active ingredient.
For the control, 93.6 parts of dimethylformamide and 1.4 parts of a polyoxyethylene alkyl aryl ether were mixed together and dissolved to obtain an emulsion (II).
Insect mortality rate(%)=(number of dead insects/number of test insects)×100 Nematode mortality rate(%)=(number of dead nematodes/number of test nematodes)×100
First, 0.8 g of a commercially-available artificial feed (Insecta LFS, manufactured by Nosan Corporation) and 1 μl of the emulsion (I) were mixed well, and thereby, a test feed was obtained. Subsequently, 0.2 g of the test feed was placed in each of the treatment areas of a plastic test container (volume: 1.4 ml). Subsequently, two second-instar larvae of Mythimna separata were inoculated into each treatment area, and a plastic lid was placed on the test container to prevent the larvae from escaping. The closed container was placed in a thermostatic chamber at 25° C. On the 5th day therefrom, the insect mortality rate and the amount of feed consumed were checked. The test was repeated.
In addition, for a control area, the insect mortality rate and the amount of feed consumed were checked in the same manner as that described in Test Example 1, with the exception of replacing the emulsion (I) with the emulsion (II).
As for `O=S(=O)(Nc1cc(C(F)(F)F)ccc1-c1nc2cc(Cl)c(Cl)cc2[nH]1)C(F)(F)F` [Compound 2-3], the “insect mortality rate against Mythimna separata” value (“insect mortality rate” for short) turned out to be 100%.
The value for `O=S(=O)(N(c1cc(C(F)(F)F)ccc1-c1nc2cc(C(F)(F)F)ccc2[nH]1)S(=O)(=O)C(F)(F)F)C(F)(F)F` [Compound 2-5] was 100%; that for `O=S(=O)(Nc1cc(C(F)(F)F)ccc1-c1nc2cc(C(F)(F)F)ccc2[nH]1)C(F)(F)F` [Compound 2-6] was 100%; that for `O=S(=O)(Nc1cc(C(F)(F)F)ccc1-c1nc2cc(F)c(F)cc2[nH]1)C(F)(F)F` [Compound 2-8] was 100%.
The value for `O=S(=O)(Nc1cc(F)c(F)cc1-c1nc2cc(F)c(F)cc2[nH]1)C(F)(F)F` [Compound 2-9] was 100%; that for `CCS(=O)(=O)Nc1cc(C(F)(F)F)ccc1-c1nc2cc(F)c(F)cc2[nH]1` [Compound 2-14] was 100%.
With `O=S(=O)(Nc1cc(C(F)(F)F)ccc1-n1cnc(-c2ccc(Br)cc2)n1)C(F)(F)F` [Compound 2-15], the “insect mortality rate” value amounted to 100%.
For `O=S(=O)(Nc1cc(C(F)(F)F)ccc1-n1cc(-c2ccc(Cl)cc2)cn1)C(F)(F)F` [Compound 2-16] the value was 100%.
For the compound `CCS(=O)(=O)Nc1cc(C(F)(F)F)ccc1-n1cnc(-c2ccc(Br)cc2)n1` [Compound 2-17], the “insect mortality rate” value is given as 100%.
For `O=S(=O)(Nc1cc(C(F)(F)F)ccc1-n1ccc(-c2ccc(Cl)cc2)n1)C(F)(F)F` [Compound 2-18], the “insect mortality rate” value was found to be 100%.
For `O=S(=O)(Nc1cc(C(F)(F)F)ccc1-n1ccc(-c2ccc(C(F)(F)F)cc2)n1)C(F)(F)F` [Compound 2-22] the value was 100%; for `O=S(=O)(Nc1cc(C(F)(F)F)ccc1-c1nc(-c2ccc(Cl)cc2)no1)C(F)(F)F` [Compound 2-25], 100%.
For `O=S(=O)(Nc1cc(C(F)(F)F)ccc1-c1ccc(C(F)(F)F)cn1)C(F)(F)F` [Compound 2-36] the value was 100%.
The value for `O=S(=O)(CC(F)(F)F)Nc1cc(C(F)(F)F)cnc1-n1ccc(C(F)(F)F)n1` [Compound 3-8] was 100%.
On to `Cc1c(Br)c(C(F)(F)F)nn1-c1ncc(C(F)(F)F)cc1NS(=O)(=O)C(F)(F)F` [Compound 3-46], for which the “insect mortality rate” value came to 100%.
For `O=S(=O)(Nc1cc(C(F)(F)F)cnc1-c1cccc(C(F)(F)F)n1)C(F)(F)F` [Compound 3-47] the value was 100%.
